Values quoted from earlier work, collected in US10639299B2, “Calcium sensing receptors, ligands, compositions, and methods of use” (Georgia State University Research Foundation, Inc., priority 2016, dated 2020).

How the values were obtained:
CaSR [1] = target: T1, CaSR (Homo sapiens, UniProt P41180); set-up: host or cells: HEK cells, transient; details: HEK cells, in the presence of 150 mM NaCl; read-out: EC50 for intracellular calcium responses; cited from earlier work
T1 sequence (P41180 20-1078): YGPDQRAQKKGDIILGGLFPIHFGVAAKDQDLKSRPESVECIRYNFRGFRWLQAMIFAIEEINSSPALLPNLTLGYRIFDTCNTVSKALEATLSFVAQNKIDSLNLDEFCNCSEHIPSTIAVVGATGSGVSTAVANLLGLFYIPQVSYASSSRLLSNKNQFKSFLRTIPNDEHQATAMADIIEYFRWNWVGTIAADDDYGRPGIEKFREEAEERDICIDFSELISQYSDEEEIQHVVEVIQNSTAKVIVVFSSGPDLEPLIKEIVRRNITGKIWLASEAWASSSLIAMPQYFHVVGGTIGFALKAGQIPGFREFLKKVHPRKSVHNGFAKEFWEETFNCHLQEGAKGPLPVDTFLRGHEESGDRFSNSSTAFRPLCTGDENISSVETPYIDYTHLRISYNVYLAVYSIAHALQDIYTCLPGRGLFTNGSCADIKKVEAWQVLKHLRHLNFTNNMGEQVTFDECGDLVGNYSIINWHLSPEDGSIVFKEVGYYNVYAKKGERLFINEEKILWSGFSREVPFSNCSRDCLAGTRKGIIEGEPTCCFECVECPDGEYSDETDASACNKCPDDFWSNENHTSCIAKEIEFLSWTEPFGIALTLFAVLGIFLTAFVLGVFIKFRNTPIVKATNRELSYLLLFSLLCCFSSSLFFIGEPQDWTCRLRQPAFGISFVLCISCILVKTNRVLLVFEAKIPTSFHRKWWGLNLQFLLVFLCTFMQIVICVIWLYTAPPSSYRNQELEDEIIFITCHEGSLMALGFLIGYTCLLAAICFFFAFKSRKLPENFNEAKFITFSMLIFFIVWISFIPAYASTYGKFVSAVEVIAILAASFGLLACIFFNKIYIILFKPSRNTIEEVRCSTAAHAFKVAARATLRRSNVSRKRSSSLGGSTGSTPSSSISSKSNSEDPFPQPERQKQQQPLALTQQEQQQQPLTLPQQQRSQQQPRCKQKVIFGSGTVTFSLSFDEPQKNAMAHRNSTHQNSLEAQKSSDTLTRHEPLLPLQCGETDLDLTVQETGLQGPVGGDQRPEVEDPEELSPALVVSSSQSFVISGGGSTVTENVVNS

CaSR [2] = target: T2, CaSR (Bos taurus, UniProt P35384); details: X. laevis oocytes; cited from earlier work
T2 construct: host or cells: X. laevis oocytes
T2 sequence (P35384 20-1085): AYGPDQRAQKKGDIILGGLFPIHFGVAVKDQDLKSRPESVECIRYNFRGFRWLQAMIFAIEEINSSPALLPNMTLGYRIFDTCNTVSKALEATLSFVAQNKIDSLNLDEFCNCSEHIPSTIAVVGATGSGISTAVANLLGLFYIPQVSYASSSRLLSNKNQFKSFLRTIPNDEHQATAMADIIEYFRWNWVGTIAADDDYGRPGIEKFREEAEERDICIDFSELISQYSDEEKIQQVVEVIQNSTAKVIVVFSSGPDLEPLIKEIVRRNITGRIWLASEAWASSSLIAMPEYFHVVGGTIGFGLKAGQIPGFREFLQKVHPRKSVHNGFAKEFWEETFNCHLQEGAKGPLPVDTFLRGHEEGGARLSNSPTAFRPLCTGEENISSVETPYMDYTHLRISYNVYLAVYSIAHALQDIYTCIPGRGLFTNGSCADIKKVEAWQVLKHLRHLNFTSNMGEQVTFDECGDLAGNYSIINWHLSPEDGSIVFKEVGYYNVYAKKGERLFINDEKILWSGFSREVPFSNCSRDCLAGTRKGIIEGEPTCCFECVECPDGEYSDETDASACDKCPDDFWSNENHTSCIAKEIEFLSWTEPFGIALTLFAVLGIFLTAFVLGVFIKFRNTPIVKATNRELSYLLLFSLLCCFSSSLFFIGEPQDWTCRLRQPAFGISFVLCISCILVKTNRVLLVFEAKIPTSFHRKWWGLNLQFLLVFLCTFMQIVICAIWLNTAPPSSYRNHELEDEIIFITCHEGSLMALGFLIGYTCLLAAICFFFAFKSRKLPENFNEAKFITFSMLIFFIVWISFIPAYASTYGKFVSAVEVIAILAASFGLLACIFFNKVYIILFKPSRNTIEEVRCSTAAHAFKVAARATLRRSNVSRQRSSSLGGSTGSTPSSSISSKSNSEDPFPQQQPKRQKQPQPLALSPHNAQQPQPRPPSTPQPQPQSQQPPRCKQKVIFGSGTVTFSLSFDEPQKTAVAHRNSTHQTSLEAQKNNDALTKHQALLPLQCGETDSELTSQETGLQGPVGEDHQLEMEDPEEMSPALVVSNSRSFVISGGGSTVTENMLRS

rat CaSR = target: T3, rat CaSR (Rattus norvegicus, UniProt P48442); details: CHO cells; cited from earlier work
T3 construct: host or cells: CHO cells, transient
T3 sequence (P48442 20-1079): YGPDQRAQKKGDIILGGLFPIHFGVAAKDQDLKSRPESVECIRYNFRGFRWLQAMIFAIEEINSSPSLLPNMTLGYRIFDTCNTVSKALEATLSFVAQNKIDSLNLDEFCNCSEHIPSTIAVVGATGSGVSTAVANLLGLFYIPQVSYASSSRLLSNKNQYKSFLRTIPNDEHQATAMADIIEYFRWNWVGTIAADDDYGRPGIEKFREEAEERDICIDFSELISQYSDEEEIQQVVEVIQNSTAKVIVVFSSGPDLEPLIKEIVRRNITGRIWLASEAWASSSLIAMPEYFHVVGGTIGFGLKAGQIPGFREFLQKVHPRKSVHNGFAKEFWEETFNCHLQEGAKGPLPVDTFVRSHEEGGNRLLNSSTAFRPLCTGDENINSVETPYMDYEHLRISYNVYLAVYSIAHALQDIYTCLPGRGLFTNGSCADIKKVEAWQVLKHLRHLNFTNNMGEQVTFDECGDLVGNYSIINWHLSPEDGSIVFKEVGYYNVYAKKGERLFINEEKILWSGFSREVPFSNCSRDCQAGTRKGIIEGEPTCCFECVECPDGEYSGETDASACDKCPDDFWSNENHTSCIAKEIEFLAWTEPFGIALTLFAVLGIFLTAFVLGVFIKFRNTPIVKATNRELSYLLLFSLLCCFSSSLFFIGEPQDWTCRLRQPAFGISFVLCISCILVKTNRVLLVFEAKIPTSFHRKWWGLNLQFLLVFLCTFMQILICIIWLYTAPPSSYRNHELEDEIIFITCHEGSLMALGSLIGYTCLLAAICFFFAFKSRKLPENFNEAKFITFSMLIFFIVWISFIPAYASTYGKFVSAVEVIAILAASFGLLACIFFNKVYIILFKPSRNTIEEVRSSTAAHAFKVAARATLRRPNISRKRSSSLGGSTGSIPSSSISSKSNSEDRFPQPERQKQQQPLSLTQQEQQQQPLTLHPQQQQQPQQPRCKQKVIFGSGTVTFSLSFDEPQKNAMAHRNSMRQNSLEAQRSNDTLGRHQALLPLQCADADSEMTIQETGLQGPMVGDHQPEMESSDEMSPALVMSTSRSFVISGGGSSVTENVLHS

SMILES: [Mg+2] [Mg^2+, magnesium]
- EC50 (CaSR [1]): 15 to 20 mM
- EC50 (CaSR [2]): 10 mM
- EC50 relative to that of Ca^2+ (rat CaSR): about twice
